According to patent publication US11555210B2, “Microbe having increased tolerance to phenolic fermentation inhibitors” (University of Ottawa, priority 2018, dated 2023):

System: bna7Δ (YKB4649)
Assay: serial dilution spot assay on YPD agar plates
Assay type: cell-based, S. cerevisiae
Conditions: 10 mM FA, 35 mM 4-HBA or 1 mM CA, 48 hr at 30° C.
Experimental: In addition, deletion mutants were generated for genes involved in the tryptophan catabolic pathway and their growth was assayed on solid media containing 10 mM ferulic acid. In particular, wild type yeast (BY4741) along with deletion mutants aro8Δ (YKB4799), bna7Δ (YKB4649), bna2Δ (YKB4798), bna6Δ (YKB4844), bna5Δ (YKB4845), bna4Δ (YKB4846) and bna1Δ (YKB4729) were grown to mid log phase ([…] 0.5-0.6) in YPD medium prior to being diluted to an OD600 of 0.1. Four 10-fold serial dilutions were spotted onto YPD agar plates either containing 10 mM ferulic acid or no ferulic acid. Plates were incubated for 48 hr at 30° C. Images of the plates were taken with the ChemiDoc XRS Molecular Imaging system (Biorad) and images are representative of three biological replicates.
Experiments were also conducted to determine if deletion of BNA7 could provide protection to 4-hydroxybenzoic acid or coniferyl aldehyde (CA). Wild type (BY4741) and bna7A (YKB4649) strains were grown to mid log phase in YPD medium prior to being diluted into fresh medium to an OD600 of 0.1. Four 10-fold serial dilutions were spotted onto YPD agar plates containing either no compound (Untreated), 10 mM ferulic acid (FA), 35 mM 4-hydroxybenzoic acid (4-HBA) or 1 mM coniferyl aldehyde (CA). Plates were incubated for 48 hr at 30° C. and images are representative of three biological replicates.

SMILES: COc1cc(C=CC=O)ccc1O [coniferyl aldehyde, 4-hydroxy-3-methoxycinnamaldehyde]
- resistance of bna7Δ / protection by deletion of BNA7: does not provide protection
